Experimental data taken from publication PMC11858854, “In Vitro and In Vivo Assessment of Pharmacokinetic Profile of Peramivir in the Context of Inhalation Therapy” (Pharmaceuticals, 2025).

How the values were obtained:
[1] = tested on: NCI-H441/dTHP co-culture model; test: Bidirectional transport, NCI-H441/dTHP co-culture model; format: in vitro ADME, human; conditions: for ER: NCI-H441/dTHP, 2 μM
Protocol: (§1) THP-1 cells were cultured in RPMI-1640 medium (Gibco, Thermo, CA, USA) supplemented with 10% FBS, PS (100 U/mL), and β-Mer (0.05 mM) at 37 °C in a humidified 5% CO2 incubator, and the medium was changed every other day. THP-1 cells were seeded at 4 × 10^5 cells/mL in six-well plates and induced for 48 h by adding medium containing a final concentration of 100 ng/mL PMA.
(§2) Then, the differentiated cells were seeded at 5 × 10^4 cells/well on the surface of NCI-H441 cells 10 days after air–liquid culture and continued to co-culture for 24 h.
(§3) We removed the liquid from the apical and basolateral of the Transwell, rinsed the cells three times with a buffer containing HBSS, 10 mM Hepes, and 0.1% BSA (Buffer A), and then added Buffer A (100 µL for the apical side and 600 µL for the basolateral side) for pre-incubation for 30 min at 37 °C. For the transport studies in the apical to basolateral (A-B) direction, 100 μL of pre-warmed test solution (Buffer A containing 2 µM positive control drugs or peramivir) was added to the apical side, while 600 μL of pre-warmed assay buffer, a buffer containing HBSS, 10 mM Hepes, and 1% BSA (Buffer B), was added to the basolateral compartment.

[2] = Permeability assay, LLC-PK1-MOCK cells; format: in vitro ADME; conditions: pig, LLC-PK1, 2 μM; for Papp A→B at 2 h, 2 µM / Papp B→A at 2 h, 2 µM: Mean ± SD, n = 3; for efflux ratio at 2 h, 2 µM: read-out: ER
Protocol: (§5) When the cell transport system was mature in culture, experiments were performed. […] When assessing permeability in basolateral to apical (B-A) direction, 100 μL of pre-warmed Buffer B and 600 μL of pre-warmed test solutions were added to the apical and basolateral compartments, respectively. The Transwells® were placed in an incubator at 37 °C and 5% CO2 for a duration of 2 h. At the end of the incubation period, the samples in the apical and basolateral sides were collected separately and were briefly kept at a temperature of −40 °C for LC-MS/MS analysis. […] The cells were transferred to Transwell® plates (Corning, NY, USA) at a density of 2 × 10^4 cells/well with 200 μL of cell suspension per well, while 850 μL of complete medium was added to the basolateral chamber. […] The samples were collected separately and were briefly kept at a temperature of −40 °C for LC-MS/MS analysis.

[3] = Bidirectional transport, Calu-3 air-liquid culture model; conditions: human
[4] = tested on: P-gp; test: as above; conditions: human, with tariquidar 5 µM
[5] = target: P-gp (MDR1) (Homo sapiens, UniProt P08183); test: Permeability assay, LLC-PK1-MDR1 cells overexpressing P-gp; conditions: for Papp B→A at 2 h, 2 µM / efflux ratio at 2 h, 2 µM: human, LLC-PK1
Sequence of P-gp (MDR1) (P08183 whole entry): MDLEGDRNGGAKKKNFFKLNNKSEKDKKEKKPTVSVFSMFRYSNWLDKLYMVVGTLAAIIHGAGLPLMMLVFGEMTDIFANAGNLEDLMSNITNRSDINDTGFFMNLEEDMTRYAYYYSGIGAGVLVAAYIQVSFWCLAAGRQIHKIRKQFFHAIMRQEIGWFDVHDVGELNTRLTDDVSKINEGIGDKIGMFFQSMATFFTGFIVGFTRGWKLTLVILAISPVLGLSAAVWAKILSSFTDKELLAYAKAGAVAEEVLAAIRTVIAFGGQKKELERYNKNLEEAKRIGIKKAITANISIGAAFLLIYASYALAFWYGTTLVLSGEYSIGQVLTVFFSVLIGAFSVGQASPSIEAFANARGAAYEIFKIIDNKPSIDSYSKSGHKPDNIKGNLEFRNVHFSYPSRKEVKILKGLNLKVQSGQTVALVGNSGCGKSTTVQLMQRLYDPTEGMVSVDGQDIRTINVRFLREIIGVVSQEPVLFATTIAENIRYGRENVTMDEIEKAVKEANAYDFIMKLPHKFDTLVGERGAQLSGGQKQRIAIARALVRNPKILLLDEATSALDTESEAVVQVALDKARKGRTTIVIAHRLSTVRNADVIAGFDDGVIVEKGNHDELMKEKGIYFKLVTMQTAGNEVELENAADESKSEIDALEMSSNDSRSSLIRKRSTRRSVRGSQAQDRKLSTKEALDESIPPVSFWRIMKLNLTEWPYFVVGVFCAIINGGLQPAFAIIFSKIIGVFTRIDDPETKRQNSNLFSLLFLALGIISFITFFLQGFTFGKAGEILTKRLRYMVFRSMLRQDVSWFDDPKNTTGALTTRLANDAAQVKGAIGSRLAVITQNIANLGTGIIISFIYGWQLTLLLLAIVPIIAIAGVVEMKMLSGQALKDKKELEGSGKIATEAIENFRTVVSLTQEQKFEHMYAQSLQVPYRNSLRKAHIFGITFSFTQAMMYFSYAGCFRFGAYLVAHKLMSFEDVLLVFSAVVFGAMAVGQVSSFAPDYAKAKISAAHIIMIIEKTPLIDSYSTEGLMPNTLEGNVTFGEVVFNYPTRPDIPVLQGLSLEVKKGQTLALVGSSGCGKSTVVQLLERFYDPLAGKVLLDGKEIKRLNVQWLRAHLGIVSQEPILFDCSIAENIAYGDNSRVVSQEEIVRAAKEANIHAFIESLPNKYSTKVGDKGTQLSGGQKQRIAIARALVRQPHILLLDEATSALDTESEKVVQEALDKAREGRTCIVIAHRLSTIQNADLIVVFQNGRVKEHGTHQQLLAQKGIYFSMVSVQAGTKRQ
Protocol: as §5

[6] = target: human MDR1 (P-gp) (Homo sapiens, UniProt P08183); test: as above; conditions: LLC-PK1-MDR1, 2 μM, Mean ± SD, n = 3
Sequence of human MDR1 (P-gp) (P08183 whole entry): as above
Protocol: as §5

[7] = tested on: NCI-H441 cell model; test: Bidirectional transport, NCI-H441 air-liquid culture model; format: in vitro ADME, human
Protocol: (§4) NCI-H441 cells were cultured in RPMI-1640 medium (Gibco, Thermo, CA, USA) supplemented with 10% FBS and PS (100 U/mL) at 37 °C in a humidified 5% CO2 incubator, and the medium was changed every other day. […] Then, 850 μL of complete medium (containing 200 nM dexamethasone) was added to the basolateral chamber. […] Subsequently, an air-interfaced culture (AIC) was initiated by supplying 650 μL of culture medium to the basolateral chamber only. The culture medium was replaced every other day.
as §3

[8] = tested on: Calu-3 cell model; test: Bidirectional transport, Calu-3 air-liquid culture model; conditions: Calu-3, about 14 days air–liquid interface
[9] = Bidirectional transport, NCI-H441 air-liquid culture model; format: in vitro ADME, human; conditions: human, NCI-H441, 2 μM; for Papp A→B at 2 h, 2 µM / Papp B→A at 2 h, 2 µM: Mean ± SD, n = 3
Protocol: as §4, §3

[10] = Bidirectional transport, NCI-H441/dTHP co-culture model; format: in vitro ADME, human; conditions: human; NCI-H441/dTHP, 2 μM, Mean ± SD, n = 3
Protocol: as §1, §2, §3

[11] = tested on: BCRP; test: Bidirectional transport, NCI-H441 air-liquid culture model; format: in vitro ADME, human; conditions: human, with ko143 5 µM; NCI-H441, topotecan 2 μM with BCRP inhibitor ko143 (5 μM); read-out: ER value, inhibitor group
Protocol: as §4, §3

[12] = administered orally; cited from earlier work

| Structure (SMILES) | ER [1] | Papp A→B at 2 h, 2 µM [2] | Papp B→A at 2 h, 2 µM [2] | efflux ratio at 2 h, 2 µM [2] | Papp A→B at 2 h, 2 µM [3] | Papp B→A at 2 h, 2 µM [3] | Papp B→A at 2 h, 2 µM [5] | efflux ratio at 2 h, 2 µM [5] | Papp A→B at 2 h, 2 µM [9] | Papp B→A at 2 h, 2 µM [9] | Papp A→B at 2 h, 2 µM [10] | Papp B→A at 2 h, 2 µM [10] | further results |
| --- | --- | --- | --- | --- | --- | --- | --- | --- | --- | --- | --- | --- | --- |
| CC(C)NCC(O)COc1ccc(CC(N)=O)cc1 (stereo not drawn) [Atenolol] | 0.88 | – | – | – | – | – | – | – | – | – | – | – | – |
| C[C@H]1O[C@@H](O[C@H]2[C@@H](O)C[C@H](O[C@H]3[C@@H](O)C[C@H](O[C@H]4CC[C@@]5(C)[C@H](CC[C@@H]6[C@@H]5C[C@@H](O)[C@]5(C)[C@@H](C7=CC(=O)OC7)CC[C@]65O)C4)O[C@@H]3C)O[C@@H]2C)C[C@H](O)[C@@H]1O [Digoxin] | – | 1.64 ± 0.27 ×10⁻⁶ cm/s | 2.22 ± 0.36 ×10⁻⁶ cm/s | 1.35 | 0.66 ± 0.02 ×10⁻⁶ cm/s | 25.1 ± 7.18 ×10⁻⁶ cm/s | 9.76 ± 0.73 ×10⁻⁶ cm/s | 13.1 | – | – | – | – | efflux ratio at 2 h, 2 µM [4]: ~1; Papp A-B [6]: 0.74 ± 0.15 ×10−6 cm/s |
| NNC(=O)NN1C(=O)c2cc(S(=O)(=O)[O-])cc3c(N)c(S(=O)(=O)[O-])cc(c23)C1=O.[K+].[K+] [Lucifer yellow CH dipotassium salt] | – | – | – | – | – | – | – | – | – | – | – | – | permeability value (barrier integrity) ([7]; NCI-H441, about 7 days air–liquid interface): < 2 ×10⁻⁶ cm/s; permeability value (barrier integrity) ([1]; NCI-H441/dTHP co-culture 24 h): < 2 ×10⁻⁶ cm/s; permeability value (barrier integrity) [8]: < 2 ×10⁻⁶ cm/s |
| COCCc1ccc(OCC(O)CNC(C)C)cc1 (stereo not drawn) [Metoprolol] | 0.90 | 28.5 ± 2.17 ×10⁻⁶ cm/s | 25.6 ± 3.71 ×10⁻⁶ cm/s | 0.9 | 29.8 ± 2.28 ×10⁻⁶ cm/s | 21.9 ± 3.73 ×10⁻⁶ cm/s | 23.1 ± 1.94 ×10⁻⁶ cm/s | 1.13 | 25.6 ± 5.45 ×10⁻⁶ cm/s | 23.4 ± 2.96 ×10⁻⁶ cm/s | 27.9 ± 7.99 ×10⁻⁶ cm/s | 24.36 ± 0.22 ×10⁻⁶ cm/s | ER ([7]; NCI-H441, 2 μM): 0.91; efflux ratio at 2 h, 2 µM [3]: 29.8 ± 2.28; Papp A→B at 2 h, 2 µM [5]: 20.4 ± 1.24 ×10⁻⁶ cm/s |
| CC[C@@]1(O)C(=O)OCc2c1cc1n(c2=O)Cc2cc3c(CN(C)C)c(O)ccc3nc2-1 [Topotecan] | 2.15 | – | – | – | – | – | – | – | 1.54 ± 0.12 ×10⁻⁶ cm/s | 3.47 ± 0.26 ×10⁻⁶ cm/s | 2.88 ± 0.55 ×10⁻⁶ cm/s | 6.18 ± 1.63 ×10⁻⁶ cm/s | efflux ratio at 2 h, 2 µM ([9]; read-out: ER): 2.25; efflux ratio at 2 h, 2 µM [11]: ~1 |
| CC(=O)N[C@H]1[C@H]([C@H](O)[C@H](O)CO)OC(C(=O)O)=C[C@@H]1N=C(N)N [zanamivir] | – | – | – | – | – | – | – | – | – | – | – | – | absolute bioavailability [12]: approximately 2% |
